The source of these data is patent publication US8975259B2, “Compositions and methods for inhibiting G protein signaling” (University of Rochester, priority 2007, dated 2015).

Like-named read-outs stand apart in the source and are kept apart here.

The assay deals with Gβ1γ2 (UniProt P54311+P63212). In words: Competition phage ELISA: inhibition of SIGK-phage binding to immobilized biotinylated Gβ1γ2. Also on record: made in house; host or cells: Sf9 insect cells (baculovirus; co-expressed with BirA and (His)6-Gαi1, from which βγ was eluted); species or system rat. As to the method: Phage ELISA assays used to assess peptide binding to wild-type and mutant b-βγ were performed according to standard methods (Smrcka and Scott (2002) Methods Enzymol. 344:557-76). Briefly, 1 μg streptavidin was immobilized in the well of a […] overnight at 4° C. The wells were blocked with 100 μL of 2% bovine serum albumin (BSA) in Tris-buffered saline (TBS) for 1 hour at 4° C. followed by three washes of IX TBS/0.5% TWEEN®. […] The wells were washed, followed by the addition of IxIO^6 to IxIO^10 phage particles and incubated at 4° C. for 3 hours. The wells were then washed six times with TBS/0.5% TWEEN® followed by addition of 40 μL of 1:5000 dilution of anti-M13 antibody (Pharmacia, Uppsala, Sweden) and incubated at room temperature for 1 hour. The wells were washed, followed by the addition of 40 μL of (2,2′-Azino-bis (3-ethylbenzthiazoline)-6-sulfonic acid (ABTS) and the colorimetric reaction was monitored at 405 nm. Nonspecific binding was subtracted for each reading.
A phage ELISA assay was used to determine whether small molecules identified in the computational screen could interact with the Gβy protein interaction surface. […] The screen was based on a reduction in the optical density (OD) of wells containing Gβγ subunits and phage. […] Three background wells contained no βy subunits.
As disclosed herein, biotinylated Gβy subunits were immobilized on the surface of a 96-well plate coated with streptavidin, phage displaying Gβγ-binding peptides were subsequently added and binding in the presence and absence of test compounds detected with an anti-phage antibody.
The phage ELISA assay was used to rapidly screen the ability of compounds to bind to the protein interaction “hot spot” based on the method of Scott et. al (Scott et al., 2001). This assay is performed in the presence of detergent (0.5% Tween) to eliminate non-specific compound aggregation artifacts.
Compounds/DMSO and 0.1×10^10 phage were added simultaneously and subsequently incubated for 1 h at room temperature. Plates were then washed with 1× Tris-buffered saline/0.5% Tween 20 and incubated with anti-M13, HRP-conjugated antibody (Amersham, Chalfont St. Giles, Buckinghamshire, UK). Phage binding was determined by monitoring A405 upon addition of 2,2′-azino-bis(3-ethylbenzothiazoline-6-sulfonic acid) (Sigma Aldrich).
In general terms: ELISA stands for enzyme-linked immunosorbent assay.

Where [1] appears, read: kind of constant not stated, read-out: binding to the G protein β subunit.

In turn, `O=C(O)C1CCCCC1c1c2ccc(=O)c(O)c-2oc2c(O)c(O)ccc12` (stereo not shown) [drawing 103] returned an IC50 (SIGK IC50, Table 6) of 0.2 µM. For the compound `O=C(O)/C=C/c1c2ccc(=O)cc-2oc2cc(O)ccc12` [(E)-3-(6-hydroxy-3-oxo-3H-xanthe-9-yl)acrylic acid], the “binding to the G protein β subunit” value (result in words) is “Neither of these compounds showed any binding”.

`O=C(O)C1C2C=CC(C2)C1c1c2ccc(=O)cc-2oc2cc(O)ccc12` (stereo not shown) [3-(6-hydroxy-3-oxo-3H-xanthen-9yl)bicyclo[2.2.1]hept-5-ene-2-carboxylic acid]: the IC50 under setting [1] was 14 µM. For the compound `Cc1cc(N)c2cc(CC(=O)C(C)(C)C(=O)Nc3ccc4nc(C)cc(N)c4c3)ccc2n1`, for the setting “Table 7, read-out: ELISA IC50”, the IC50 is 74 µM. As to `Nc1ccc(-c2ccc(Nc3cc(S(=O)(=O)O)c(N)c4c3C(=O)c3ccccc3C4=O)cc2)c(S(=O)(=O)O)c1` [drawing 54], for the setting “Table 2, read-out: Elisa IC50”, the IC50 amounted to 18 µM.

The compound `O=C1C=CC2C(=C1O)Oc1c(ccc(O)c1O)/C2=C\C=C(O)O` (stereo not shown) yielded an IC50 (Table 6) of 0.2 µM. As for `Ic1ccc2c(c1)N(c1ccccc1)c1cc(Nc3ccc4c(c3)N(c3ccccc3)c3cc(I)ccc3N4)ccc1N2`, under “Table 7, read-out: ELISA IC50”, the IC50 turned out to be 2 µM. Turning to `O=C(O)CCc1c2ccc(=O)c(O)c-2oc2c(O)c(O)ccc12` [3-(4,5,6-trihydroxy-3-oxo-3H-xanthen-9-ylpropanoic acid], the IC50 under setting [1] is 2.5 µM. Consider `Nc1c(S(=O)(=O)O)cc(Nc2cccc(S(N)(=O)=O)c2)c2c1C(=O)c1ccccc1C2=O` [Compound M117], for which the IC50 by setting is: (Table 8, read-out: IC50) 43 µM; (Table 18, compounds identified in Elisa screen, read-out: IC50) 56 µM.

For the compound “7-methyl-3-(4,5,6-trihydroxy-3-oxo-3H-xanthen-9-yl)bicyclo[2.2.1]hept-5-ene-2-carboxylic acid”, the IC50 (kind of constant not stated, read-out: binding to the protein interaction site of the β subunit of a G protein) was 0.7 µM. The compound `O=C(O)c1ccccc1-c1c2ccc(=O)c(O)c-2oc2c(O)c(O)ccc12` yielded an IC50 (Table 6) of 0.2 µM. Take `O=C(O)/C=C/c1c2ccc(=O)c(O)c-2oc2c(O)c(O)ccc12` [(E)-3-(4,5,6-trihydroxy-3-oxo-3H-xanthen-9-yl)acrylic acid]: the IC50 under setting [1] was found to be 0.2 µM.
